From PMC12655351, “Synthesis and Anticancer Activity Evaluation of New 5-((5-Nitrofuran-2-yl)allylidene)-2-thioxo-4-thiazolidinones” (Pharmaceuticals, 2025)

Experiments:
SK-MEL-5 = experiment: cells; conditions: Homo sapiens, SK-MEL-5, 48 h; for CC50: read-out: LC50, SK-MEL-5, 48 h
NCI-H23 = experiment: cells; conditions: Homo sapiens, NCI-H23, 48 h; for CC50: read-out: LC50, NCI-H23, 48 h
AGS = experiment: MTT assay; assay type: cell-based; conditions: Homo sapiens, 24 h of treatment
Method in brief: (§1)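 Cells exposed to compounds at 0.625–40 μM (seven concentrations, triplicate) for 24 h. MTT (5 mg/mL) then added for 2 h at 37 °C, cells lysed in acidic SDS/DMF buffer pH 4.7, absorbance read at 570 nm.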

HCC-1954 = experiment: MTT assay; assay type: cell-based; conditions: Homo sapiens, HCC1954; HCC-1954, 24 h of treatment
Method in brief: as §1

Jurkat = experiment: MTT assay; assay type: cell-based; conditions: Homo sapiens, 24 h of treatment
Method in brief: as §1

SH SY5Y = experiment: MTT assay; assay type: cell-based; conditions: Homo sapiens, 24 h of treatment
Method in brief: as §1

MDA-MB-231 = experiment: MTT assay; assay type: cell-based; conditions: Homo sapiens; MDA-MB-231, 24 h of treatment
Method in brief: as §1

MCF-7 = experiment: MTT assay; assay type: cell-based; conditions: Homo sapiens, MCF7; MCF-7, 24 h of treatment
Method in brief: as §1

K562 = experiment: MTT assay; assay type: cell-based; conditions: Homo sapiens; K562, 24 h of treatment
Method in brief: as §1

HCT-116 [1] = experiment: MTT assay; assay type: cell-based; conditions: Homo sapiens; HCT-116, 24 h of treatment
Method in brief: as §1

RPMI 8866 = experiment: MTT assay; assay type: cell-based; conditions: Homo sapiens; RPMI 8866, 24 h of treatment
Method in brief: as §1

DLD-1 = experiment: MTT assay; assay type: cell-based; conditions: Homo sapiens; DLD-1, 24 h of treatment
Method in brief: as §1

HT-29 = experiment: MTT assay; assay type: cell-based; conditions: Homo sapiens; HT-29, 24 h of treatment
Method in brief: as §1

Melanoma = Melanoma subpanel
LOX IMVI = experiment: cells; conditions: Homo sapiens, 48 h; for CC50: read-out: LC50, LOX IMVI, 48 h
A498 = conditions: A498, 48 h
NCI/ADR-RES = conditions: 48 h
SF-268 = conditions: SF-268, 48 h
CCRF-CEM = experiment: cells; conditions: Homo sapiens, 48 h
CNS cancer = experiment: cells; conditions: Homo sapiens; for GI50: read-out: MG_MID GI50; for CC50: read-out: MG_MID LC50
HT29 [2] = experiment: cells; conditions: Homo sapiens, HT-29, 48 h; for GI50: HT29, 48 h; for CC50: read-out: LC50, HT29, 48 h
T-47D = experiment: cells; conditions: Homo sapiens, T47D, 48 h; for GI50: T-47D; for CC50: read-out: LC50
HCT-116 [3] = conditions: HCT-116, 48 h
786-0 = experiment: cells; conditions: Homo sapiens, 786-0, 48 h
OVCAR-3 = experiment: cells; conditions: Homo sapiens, OVCAR-3, 48 h
HOP-92 = experiment: NCI-60 SRB screen; conditions: HOP-92, 48 h; for GI50 / CC50: Homo sapiens; for CC50: read-out: LC50, HOP-92, 48 h
SNB-19 = experiment: NCI-60 SRB screen; conditions: SNB-19, 48 h; for GI50 / CC50: Homo sapiens; for CC50: read-out: LC50, SNB-19, 48 h
SK-MEL-2 = experiment: NCI-60 SRB screen; conditions: SK-MEL-2, 48 h; for GI50 / CC50: Homo sapiens; for CC50: read-out: LC50, SK-MEL-2, 48 h
NCI-H322M = experiment: NCI-60 SRB screen; conditions: 48 h; for GI50 / CC50: Homo sapiens; for CC50: read-out: LC50, NCI-H322M, 48 h
HT29 [4] = conditions: HT29, 48 h
CAKI-1 = experiment: cells; conditions: Homo sapiens, CAKI-1, 48 h
MDA-MB-468 = experiment: NCI-60 SRB screen; conditions: MDA-MB-468, 48 h; for GI50 / CC50: Homo sapiens; for CC50: read-out: LC50, MDA-MB-468, 48 h

O=C(O)C(c1ccccc1)N1C(=O)/C(=C/C=C/c2ccc([N+](=O)[O-])o2)SC1=S (centres unmarked) [9b, 2-((Z)-5-((E)-3-(5-Nitrofuran-2-yl)allylidene)-4-oxo-2-thioxothiazolidin-3-yl)-2-phenylacetic acid]
GI50 (SK-MEL-5): 3.38 µM
CC50 (SK-MEL-5): 38.8 µM
GI50 (NCI-H23): 14.4 µM
CC50 (NCI-H23): 66.9 µM
IC50 (AGS): 12.9 µM
IC50 (HCC-1954): 20.6 µM
IC50 (Jurkat): 2.51 µM
IC50 (SH SY5Y): 20.1 µM
IC50 (MDA-MB-231): 36.7 µM
IC50 (MCF-7): 14.1 µM
IC50 (K562): 37.6 µM
IC50 (HCT-116 [1]): 11.7 µM
IC50 (RPMI 8866): 5.54 µM
IC50 (DLD-1): 12.3 µM
IC50 (HT-29): 20 µM
MG_MID TGI (Melanoma): 20.0 µM
GI50 (LOX IMVI): 10.8 µM
CC50 (LOX IMVI): 62.3 µM
TGI (A498): 36.5 µM
TGI (NCI/ADR-RES): 33.9 µM
TGI (SF-268): 23.7 µM
GI50 (CCRF-CEM): 3.12 µM
GI50 (CNS cancer): 9.99 µM
CC50 (CNS cancer): 48.4 µM
GI50 (HT29 [2]): 5.02 µM
CC50 (HT29 [2]): 94.5 µM
GI50 (T-47D): 11.1 µM
CC50 (T-47D): > 100 µM
TGI (HCT-116 [3]): 8.14 µM
GI50 (786-0): 3.67 µM
GI50 (OVCAR-3): 9.26 µM
TGI (HOP-92): 27.5 µM
GI50 (HOP-92): 13.4 µM
CC50 (HOP-92): 56.2 µM
GI50 (SNB-19): 13.5 µM
CC50 (SNB-19): 51.4 µM
TGI (SNB-19): 26.3 µM
GI50 (SK-MEL-2): 5.64 µM
CC50 (SK-MEL-2): 49.2 µM
TGI (SK-MEL-2): 19.7 µM
TGI (NCI-H322M): 26.6 µM
GI50 (NCI-H322M): 13.4 µM
CC50 (NCI-H322M): 52.5 µM
TGI (HT29 [4]): 22.4 µM
GI50 (CAKI-1): 6.27 µM
GI50 (MDA-MB-468): 2.74 µM
CC50 (MDA-MB-468): 45.6 µM
TGI (MDA-MB-468): 10.4 µM

CCCC(C(=O)O)N1C(=O)/C(=C/C=C/c2ccc([N+](=O)[O-])o2)SC1=S (centres unmarked) [4b, 2-((Z)-5-((E)-3-(5-Nitrofuran-2-yl)allylidene)-4-oxo-2-thioxothiazolidin-3-yl)pentanoic acid]
GI50 (SK-MEL-5): 1.47 µM
CC50 (SK-MEL-5): 5.31 µM
GI50 (NCI-H23): 1.97 µM
CC50 (NCI-H23): 8.57 µM
IC50 (AGS): 6.54 µM
IC50 (HCC-1954): 7.07 µM
IC50 (Jurkat): 5.85 µM
IC50 (SH SY5Y): 16.3 µM
IC50 (MDA-MB-231): 17.5 µM
IC50 (MCF-7): 5.87 µM
IC50 (K562): 16.1 µM
IC50 (HCT-116 [1]): 7.89 µM
IC50 (RPMI 8866): 19.6 µM
IC50 (DLD-1): 7.61 µM
IC50 (HT-29): 13.2 µM
MG_MID TGI (Melanoma): 3.41 µM
GI50 (LOX IMVI): 1.59 µM
CC50 (LOX IMVI): 6.11 µM
TGI (A498): 7.21 µM
TGI (NCI/ADR-RES): 4.96 µM
TGI (SF-268): 4.45 µM
GI50 (CCRF-CEM): 2.27 µM
GI50 (CNS cancer): 1.93 µM
CC50 (CNS cancer): 11.6 µM
GI50 (HT29 [2]): 1.95 µM
CC50 (HT29 [2]): 7.45 µM
GI50 (T-47D): 2.2 µM
CC50 (T-47D): > 100 µM
TGI (HCT-116 [3]): 3.90 µM
GI50 (786-0): 3.71 µM
GI50 (OVCAR-3): 2.18 µM
TGI (HOP-92): 7.69 µM
GI50 (HOP-92): 2.63 µM
CC50 (HOP-92): 31.9 µM
GI50 (SNB-19): 2.01 µM
CC50 (SNB-19): 8.45 µM
TGI (SNB-19): 4.12 µM
GI50 (SK-MEL-2): 1.53 µM
CC50 (SK-MEL-2): 5.89 µM
TGI (SK-MEL-2): 3.00 µM
TGI (NCI-H322M): 14.2 µM
GI50 (NCI-H322M): 3.72 µM
CC50 (NCI-H322M): 38.1 µM
TGI (HT29 [4]): 3.81 µM
GI50 (CAKI-1): 1.75 µM
GI50 (MDA-MB-468): 1.57 µM
CC50 (MDA-MB-468): 5.92 µM
TGI (MDA-MB-468): 3.05 µM

CCCCC(C(=O)O)N1C(=O)/C(=C/C=C/c2ccc([N+](=O)[O-])o2)SC1=S (centres unmarked) [6b, 2-((Z)-5-((E)-3-(5-nitrofuran-2-yl)allylidene)-4-oxo-2-thioxothiazolidin-3-yl)hexanoic acid]
GI50 (SK-MEL-5): 1.45 µM
CC50 (SK-MEL-5): 5.29 µM
GI50 (NCI-H23): 1.85 µM
CC50 (NCI-H23): 6.64 µM
IC50 (AGS): 3.99 µM
IC50 (HCC-1954): 4.18 µM
IC50 (Jurkat): 13.9 µM
IC50 (SH SY5Y): 8.39 µM
IC50 (MDA-MB-231): 10.3 µM
IC50 (MCF-7): 6.39 µM
IC50 (K562): 36.2 µM
IC50 (HCT-116 [1]): 17.6 µM
IC50 (RPMI 8866): 15.2 µM
IC50 (DLD-1): 4.58 µM
IC50 (HT-29): 8.01 µM
MG_MID TGI (Melanoma): 3.59 µM
GI50 (LOX IMVI): 1.76 µM
CC50 (LOX IMVI): 6.37 µM
TGI (A498): 8.28 µM
TGI (NCI/ADR-RES): 5.61 µM
TGI (SF-268): 5.24 µM
GI50 (CCRF-CEM): 3.1 µM
GI50 (CNS cancer): 2.01 µM
CC50 (CNS cancer): 12 µM
GI50 (HT29 [2]): 1.98 µM
CC50 (HT29 [2]): 6.95 µM
GI50 (T-47D): 1.75 µM
TGI (HCT-116 [3]): 4.05 µM
GI50 (786-0): 3.11 µM
GI50 (OVCAR-3): 2.23 µM
TGI (HOP-92): 9.85 µM
GI50 (HOP-92): 3.57 µM
CC50 (HOP-92): 42.2 µM
GI50 (SNB-19): 2.1 µM
CC50 (SNB-19): 13.5 µM
TGI (SNB-19): 4.88 µM
GI50 (SK-MEL-2): 1.7 µM
CC50 (SK-MEL-2): 6.12 µM
TGI (SK-MEL-2): 3.22 µM
TGI (NCI-H322M): 15.0 µM
GI50 (NCI-H322M): 3.84 µM
CC50 (NCI-H322M): 43.9 µM
TGI (HT29 [4]): 3.71 µM
GI50 (CAKI-1): 1.67 µM
GI50 (MDA-MB-468): 1.63 µM
CC50 (MDA-MB-468): 6.09 µM
TGI (MDA-MB-468): 3.15 µM
